Test results taken from patent publication US20250186627A1, “RADIOLABELED COMPOUNDS TARGETING THE PROSTATE-SPECIFIC MEMBRANE ANTIGEN” (PROVINCIAL HEALTH SERVICES AUTHORITY, priority 2022, published 2025).
Values belong to the compound of their own block, whether it stands above or below them. *1 amine or outer side, *2 acyl side, *3 side chain or, on linkers, in order; H or OH if unused. Where a SMILES comes first, the peptide text is derived from it. [ ]: non-standard residue; d: D form. The star is where a group is joined. ξ: configuration not given here. AadUreaLys(Nε) = O=C(O)CCC[C@H](NC(=O)N[C@@H](CCCCN*)C(=O)O)C(=O)O; ξLys(Nα-CO-ξAad) = O=C(O)CCCC(NC(=O)NC(CCCCN*)C(=O)O)C(=O)O; Butanoyl(4-(4-NO2Ph)) = O=C(CCCc1ccc([N+](=O)[O-])cc1)*; DOTA = O=C(O)CN1CCN(CC(=O)O)CCN(CC(=O)*)CCN(CC(=O)O)CC1; Ala(9-anthryl) = N[C@@H](Cc1c2ccccc2cc2ccccc12)C(=O)O; Butanoyl(4-(4-MeO-phenyl)) = COc1ccc(CCCC(=O)*)cc1; ξAla(9-anthryl) = NC(Cc1c2ccccc2cc2ccccc12)C(=O)O; X1 = O=C(C1CCC(CN[*:1])CC1)[*:2]; ξK = NCCCCC(N)C(=O)O

How the values were obtained:
[1] = target: T1, PSMA (Homo sapiens, UniProt Q04609); assay: In vitro PSMA competitive binding assay, LNCaP cells, [18F]DCFPyL radioligand; conditions: [18F]DCFPyL 0.1 nM, read-out: PSMA binding affinity (Ki)
T1 construct: endogenous in cells; host or cells: LNCaP cells
T1 sequence (Q04609 whole entry): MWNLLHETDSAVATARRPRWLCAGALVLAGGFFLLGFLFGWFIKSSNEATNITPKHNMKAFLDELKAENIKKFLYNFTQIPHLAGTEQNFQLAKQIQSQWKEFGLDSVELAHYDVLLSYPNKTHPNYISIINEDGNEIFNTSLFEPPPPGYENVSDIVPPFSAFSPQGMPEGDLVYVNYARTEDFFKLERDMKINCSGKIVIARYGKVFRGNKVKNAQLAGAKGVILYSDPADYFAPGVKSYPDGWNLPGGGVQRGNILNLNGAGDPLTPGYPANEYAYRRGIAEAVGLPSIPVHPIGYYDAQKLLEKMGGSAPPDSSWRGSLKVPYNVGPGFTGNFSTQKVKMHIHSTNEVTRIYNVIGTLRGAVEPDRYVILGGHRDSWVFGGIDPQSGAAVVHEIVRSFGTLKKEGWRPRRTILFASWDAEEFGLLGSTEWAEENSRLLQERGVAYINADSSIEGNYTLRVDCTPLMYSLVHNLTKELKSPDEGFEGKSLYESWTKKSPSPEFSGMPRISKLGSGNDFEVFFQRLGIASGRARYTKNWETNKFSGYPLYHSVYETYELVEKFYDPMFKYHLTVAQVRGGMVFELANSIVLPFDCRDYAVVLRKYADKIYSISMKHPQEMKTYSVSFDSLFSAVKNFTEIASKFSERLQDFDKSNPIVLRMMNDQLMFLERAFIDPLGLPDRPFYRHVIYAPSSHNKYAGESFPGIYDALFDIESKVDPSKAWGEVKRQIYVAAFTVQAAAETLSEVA
Protocol: Inhibition constants (Ki) to PSMA were measured by in vitro competition binding assays using [^18F]DCFPyL as the radioligand. LNCaP cells which were plated onto a 24-well poly-D-lysine coated plate for 48 h (400,000/well). Growth medium was removed and replaced with HEPES buffered saline (50 mM HEPES, pH 7.5, 0.9% sodium chloride). After 1 h, [^18F]DCFPyL (0.1 nM) was added to each well (in triplicate) containing varied concentrations ([…]) of tested compounds The assay mixtures were incubated for 1 h at 37° C. with gentle agitation followed by two washes with cold HEPES buffered saline. A trypsin solution (0.25%, 400 μL) was then added to each well to harvest the cells. Radioactivity was measured by gamma counting and Ki values calculated using the ‘one site—fit Ki’ built-in model in Prism 8 (GraphPad).

[2] = tested on: NRG-mice bearing LNCaP tumors; assay: Biodistribution (and PET/SPECT imaging) in NRG-mice bearing LNCaP tumors; format: in vivo; conditions: Avg
Procedure, shortened: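 LNCaP xenografts (~10 million cells, left dorsal flank) grown 4-6 weeks to 200-600 mm^3 in NRG mice. Tail-vein injection of 4-6 MBq ^68Ga or 18.5 MBq ^177Lu tracer under isoflurane; CT then 10-min static PET or 1-h SPECT. Biodistribution by gamma counting of weighed organs, expressed as %ID/g.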

Ki [1]: 2.82 nM
Structure (SMILES): O=C(O)CCC[C@H](NC(=O)N[C@@H](CCCCNC(=O)[C@H](Cc1c2ccccc2cc2ccccc12)NC(=O)C1CCC(CNC(=O)CNC(=O)[C@H](CCCCNC(=O)CN2CCOCCN(CC(=O)O)CCN(CC(=O)O)CCOCCN(CC(=O)O)CC2)NC(=O)CNC(=O)CCCc2ccc([N+](=O)[O-])cc2)CC1)C(=O)O)C(=O)O (some centres unmarked) [CCZ02034]

Structure (SMILES): COc1ccc(CCCC(=O)NCC(=O)N[C@@H](CCCCNC(=O)CN2CCN(CC(=O)O)CCN(CC(=O)O)CCN(CC(=O)O)CC2)C(=O)NCC(=O)NCC(=O)NCC(=O)NCC(=O)NCC2CCC(C(=O)N[C@@H](Cc3c4ccccc4cc4ccccc34)C(=O)NCCCC[C@H](NC(=O)N[C@@H](CCCC(=O)O)C(=O)O)C(=O)O)CC2)cc1 (some centres unmarked) [CCZ02059] ({Butanoyl(4-(4-MeO-phenyl))}-GK(DOTA)GGGG[X1][Ala(9-anthryl)]-{AadUreaLys(Nε)})
Ki [1]: 10.8 ± 3.28 nM

Biodistribution: Adrenal gland ([2]; 3 h p.i.): 3.61 % ID/g
Biodistribution: Blood ([2]; 3 h p.i.): 9.83 % ID/g
Biodistribution: Bone ([2]; 3 h p.i.): 1.24 % ID/g
Biodistribution: Brain ([2]; 3 h p.i.): 0.19 % ID/g
Biodistribution: Fat ([2]; 3 h p.i.): 1.96 % ID/g
Biodistribution: Heart ([2]; 3 h p.i.): 2.27 % ID/g
Biodistribution: Intestine ([2]; 3 h p.i.): 1.02 % ID/g
Biodistribution: LNCaP tumor ([2]; 3 h p.i.): 23.63 % ID/g
Biodistribution: Lacrimal gland ([2]; 3 h p.i.): 0.92 % ID/g
Biodistribution: Liver ([2]; 3 h p.i.): 1.90 % ID/g
Biodistribution: Lungs ([2]; 3 h p.i.): 4.93 % ID/g
Biodistribution: Muscle ([2]; 3 h p.i.): 0.80 % ID/g
Biodistribution: Pancreas ([2]; 3 h p.i.): 1.14 % ID/g
Biodistribution: Salivary gland ([2]; 3 h p.i.): 3.37 % ID/g
Biodistribution: Seminal gland ([2]; 3 h p.i.): 2.26 % ID/g
Biodistribution: Spleen ([2]; 3 h p.i.): 1.15 % ID/g
Biodistribution: Stomach ([2]; 3 h p.i.): 0.47 % ID/g
Biodistribution: Testes ([2]; 3 h p.i.): 2.73 % ID/g
Biodistribution: Thyroid ([2]; 3 h p.i.): 1.72 % ID/g
Biodistribution: Urine ([2]; 3 h p.i.): 142.80 % ID/g
Biodistribution: kidney ([2]; 3 h p.i.): 14.29 % ID/g
Biodistribution: Adrenal gland ([2]; 24 h p.i.): 0.59 % ID/g
Biodistribution: Blood ([2]; 24 h p.i.): 0.28 % ID/g
Biodistribution: Bone ([2]; 24 h p.i.): 0.30 % ID/g
Biodistribution: Brain ([2]; 24 h p.i.): 0.03 % ID/g
Biodistribution: Fat ([2]; 24 h p.i.): 0.13 % ID/g
Biodistribution: Heart ([2]; 24 h p.i.): 0.25 % ID/g
Biodistribution: Intestine ([2]; 24 h p.i.): 0.15 % ID/g
Biodistribution: LNCaP tumor ([2]; 24 h p.i.): 42.31 % ID/g
Biodistribution: Lacrimal gland ([2]; 24 h p.i.): 0.32 % ID/g
Biodistribution: Liver ([2]; 24 h p.i.): 0.68 % ID/g
Biodistribution: Lungs ([2]; 24 h p.i.): 0.58 % ID/g
Biodistribution: Muscle ([2]; 24 h p.i.): 0.06 % ID/g
Biodistribution: Pancreas ([2]; 24 h p.i.): 0.09 % ID/g
Biodistribution: Salivary gland ([2]; 24 h p.i.): 0.35 % ID/g
Biodistribution: Seminal gland ([2]; 24 h p.i.): 0.15 % ID/g
Biodistribution: Spleen ([2]; 24 h p.i.): 0.50 % ID/g
Biodistribution: Stomach ([2]; 24 h p.i.): 0.20 % ID/g
Biodistribution: Testes ([2]; 24 h p.i.): 0.38 % ID/g
Biodistribution: Thyroid ([2]; 24 h p.i.): 0.33 % ID/g
Biodistribution: Urine ([2]; 24 h p.i.): 4.30 % ID/g
Biodistribution: kidney ([2]; 24 h p.i.): 6.87 % ID/g
Biodistribution: Adrenal gland ([2]; 72 h p.i.): 24.11 % ID/g
Biodistribution: Blood ([2]; 72 h p.i.): 0.01 % ID/g
Biodistribution: Bone ([2]; 72 h p.i.): 0.34 % ID/g
Biodistribution: Brain ([2]; 72 h p.i.): 0.02 % ID/g
Biodistribution: Fat ([2]; 72 h p.i.): 0.40 % ID/g
Biodistribution: Heart ([2]; 72 h p.i.): 0.16 % ID/g
Biodistribution: Intestine ([2]; 72 h p.i.): 0.06 % ID/g
Biodistribution: LNCaP tumor ([2]; 72 h p.i.): 54.12 % ID/g
Biodistribution: Lacrimal gland ([2]; 72 h p.i.): 1.39 % ID/g
Biodistribution: Liver ([2]; 72 h p.i.): 0.51 % ID/g
Biodistribution: Lungs ([2]; 72 h p.i.): 0.19 % ID/g
Biodistribution: Muscle ([2]; 72 h p.i.): 0.04 % ID/g
Biodistribution: Pancreas ([2]; 72 h p.i.): 0.09 % ID/g
Biodistribution: Salivary gland ([2]; 72 h p.i.): 0.33 % ID/g
Biodistribution: Seminal gland ([2]; 72 h p.i.): 0.03 % ID/g
Biodistribution: Spleen ([2]; 72 h p.i.): 0.93 % ID/g
Biodistribution: Stomach ([2]; 72 h p.i.): 0.06 % ID/g
Biodistribution: Testes ([2]; 72 h p.i.): 0.33 % ID/g
Biodistribution: Thyroid ([2]; 72 h p.i.): 0.22 % ID/g
Biodistribution: Urine ([2]; 72 h p.i.): 1.33 % ID/g
Biodistribution: kidney ([2]; 72 h p.i.): 3.62 % ID/g
Biodistribution: Adrenal gland ([2]; 144 h p.i.): 0.31 % ID/g
Biodistribution: Blood ([2]; 144 h p.i.): 0.01 % ID/g
Biodistribution: Bone ([2]; 144 h p.i.): 0.23 % ID/g
Biodistribution: Brain ([2]; 144 h p.i.): 0.02 % ID/g
Biodistribution: Fat ([2]; 144 h p.i.): 0.07 % ID/g
Biodistribution: Heart ([2]; 144 h p.i.): 0.14 % ID/g
Biodistribution: Intestine ([2]; 144 h p.i.): 0.06 % ID/g
Biodistribution: LNCaP tumor ([2]; 144 h p.i.): 71.25 % ID/g
Biodistribution: Lacrimal gland ([2]; 144 h p.i.): 0.65 % ID/g
Biodistribution: Liver ([2]; 144 h p.i.): 0.71 % ID/g
Biodistribution: Lungs ([2]; 144 h p.i.): 0.13 % ID/g
Biodistribution: Muscle ([2]; 144 h p.i.): 0.02 % ID/g
Biodistribution: Pancreas ([2]; 144 h p.i.): 0.14 % ID/g
Biodistribution: Salivary gland ([2]; 144 h p.i.): 0.21 % ID/g
Biodistribution: Seminal gland ([2]; 144 h p.i.): 0.04 % ID/g
Biodistribution: Spleen ([2]; 144 h p.i.): 0.65 % ID/g
Biodistribution: Stomach ([2]; 144 h p.i.): 0.05 % ID/g
Biodistribution: Testes ([2]; 144 h p.i.): 0.29 % ID/g
Biodistribution: Thyroid ([2]; 144 h p.i.): 0.23 % ID/g
Biodistribution: Urine ([2]; 144 h p.i.): 0.55 % ID/g
Biodistribution: kidney ([2]; 144 h p.i.): 1.95 % ID/g
Biodistribution: Adrenal gland ([2]; 240 h p.i.): 0.53 % ID/g
Biodistribution: Blood ([2]; 240 h p.i.): 0.02 % ID/g
Biodistribution: Bone ([2]; 240 h p.i.): 0.57 % ID/g
Biodistribution: Brain ([2]; 240 h p.i.): 0.02 % ID/g
Biodistribution: Fat ([2]; 240 h p.i.): 0.13 % ID/g
Biodistribution: Heart ([2]; 240 h p.i.): 0.16 % ID/g
Biodistribution: Intestine ([2]; 240 h p.i.): 0.06 % ID/g
Biodistribution: LNCaP tumor ([2]; 240 h p.i.): 123.67 % ID/g
Biodistribution: Lacrimal gland ([2]; 240 h p.i.): 0.19 % ID/g
Biodistribution: Liver ([2]; 240 h p.i.): 1.49 % ID/g
Biodistribution: Lungs ([2]; 240 h p.i.): 0.18 % ID/g
Biodistribution: Muscle ([2]; 240 h p.i.): 0.08 % ID/g
Biodistribution: Pancreas ([2]; 240 h p.i.): 0.06 % ID/g
Biodistribution: Salivary gland ([2]; 240 h p.i.): 0.32 % ID/g
Biodistribution: Seminal gland ([2]; 240 h p.i.): 0.06 % ID/g
Biodistribution: Spleen ([2]; 240 h p.i.): 1.14 % ID/g
Biodistribution: Stomach ([2]; 240 h p.i.): 0.08 % ID/g
Biodistribution: Testes ([2]; 240 h p.i.): 0.27 % ID/g
Biodistribution: Thyroid ([2]; 240 h p.i.): 0.23 % ID/g
Biodistribution: Urine ([2]; 240 h p.i.): 0.41 % ID/g
Biodistribution: kidney ([2]; 240 h p.i.): 2.24 % ID/g
Structure (SMILES): O=C([O-])CN1CCN(CC(=O)[O-])CCN(CC(=O)NCCCCC(NC(=O)CNC(=O)CCCc2ccc([N+](=O)[O-])cc2)C(=O)NCC(=O)NCC2CCC(C(=O)NC(Cc3c4ccccc4cc4ccccc34)C(=O)NCCCCC(NC(=O)NC(CCCC(=O)O)C(=O)O)C(=O)O)CC2)CCN(CC(=O)[O-])CC1.[225Ac+3] (centres unmarked) [^225Ac-CCZ02017] ({Butanoyl(4-(4-NO2Ph))}-G[ξK](DOTA)G[X1][ξAla(9-anthryl)]-{ξLys(Nα-CO-ξAad)})
